Test results from patent US12195427B2, “MASP-2 inhibitors and methods of use” (priority 2018, dated 2025).
Counter-ions that a name gives are not always drawn.

Molecular target: MASP-2 CCP2-SP (Homo sapiens (Human), UniProt O00187)
Assay: MASP-2 co-crystallization, X-ray crystallography and structure analysis (H-bonds, van der Waals contacts);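 as to Ligand-pharmacophore element distance, pharmacophore element C2: distance from averaged pharmacophore element to bound ligand; missing value means element absent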;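 as to Ligand-pharmacophore element distance, pharmacophore element C3: distance from averaged pharmacophore element to bound ligand; missing value means element absent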;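 as to Ligand-pharmacophore element distance, pharmacophore element C4: distance from averaged pharmacophore element to bound ligand; missing value means element absent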;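 as to Ligand-pharmacophore element distance, pharmacophore element C5: distance from averaged pharmacophore element to bound ligand; missing value means element absent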
Parameters: van der Waals contact distance, MASP-2 HIS 483 atom CD2 / van der Waals contact distance, MASP-2 HIS 483 atom NE2 / van der Waals contact distance, SER 654 C to compound atom / van der Waals contact distance, SER 654 O to compound atom / van der Waals contact distance, TRP 655 C to compound atom / van der Waals contact distance, MASP-2 GLY 528 atom CA / van der Waals contact distance TRP 655 atom CZ3 / van der Waals contact distance TRP 655 atom N / van der Waals contact distance TRP 655 atom CE3 / van der Waals contact distance GLY 656 atom C / van der Waals contact distance GLY 656 atom CA / van der Waals contact distance GLY 656 atom O / van der Waals contact distance, MASP-2 TYR 607 atom CD1 / van der Waals contact distance, MASP-2 PRO 606 atom O / d(C3,CA1) / d(CA1,N1)2 / d(H4,O1) / d(H4,O2) / d(O1,O2) / d(CA1,O2) / d(CA6,O1) / d(CA6,O2) / d(CA1,C5) / d(O2,H3) / d(N2,C2) / d(CA5,N2) / d(N2,C4) / d(N2,C6) / d(N2,CA3) / d(N2,O3) / d(O4,H2): unit not given beside the values
Conditions: for H-bond distance to MASP-2 ASP 627 atom OD2: ASP 627 OD2; for H-bond distance to MASP-2 GLY 656 atom N: GLY 656 N; for H-bond distance to MASP-2 SER 628 atom O: SER 628 O; for H-bond distance to MASP-2 SER 654 atom O: SER 654 O; for H-bond distance to MASP-2 SER 657 atom O: SER 657 O; for van der Waals contact distance, MASP-2 HIS 483 atom CD2 / van der Waals contact distance, MASP-2 HIS 483 atom NE2: Table A2-1; for van der Waals contact distance, MASP-2 PHE 529 atom CE1: Table A2-3; for Ligand-pharmacophore element distance, pharmacophore element C2 / Ligand-pharmacophore element distance, pharmacophore element C3 / Ligand-pharmacophore element distance, pharmacophore element C4 / Ligand-pharmacophore element distance, pharmacophore element C5 / Ligand-pharmacophore element distance, pharmacophore element C6 / Ligand-pharmacophore element distance, pharmacophore element C7 / Ligand-pharmacophore element distance, pharmacophore element CA1 / Ligand-pharmacophore element distance, pharmacophore element CA2 / Ligand-pharmacophore element distance, pharmacophore element CA3 / Ligand-pharmacophore element distance, pharmacophore element CA4 / Ligand-pharmacophore element distance, pharmacophore element CA5 / Ligand-pharmacophore element distance, pharmacophore element CA6: Table A4-1; for a(N1, CA1, O1) b): Methyl-amino-pyridine compounds; for a(O1, O2, H3) / a(O1, O2, N2) / a(O2, N2, C2) / a(O2, N2, CA2): Table A6-2 pharmacophore angle
How it was run: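 Soaked crystals of recombinant CCP2-SP (E. coli) yield the structures, phased by molecular replacement on 1Q3X pieces. Hydrophobic or nonbonded contacts can also cover atom pairs that are potential hydrogen bonds.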

[1] = Table A5-1 pharmacophore: distance between elements, S2/S1 region
[2] = Table A5-2 pharmacophore distance, S3/S4 region
[3] = Table A7-1, between pharmacophore elements of the bound compound
[4] = Table A7-2, between pharmacophore elements of the bound compound
[5] = Table A8-6, nearest protein atom in cell to the left

Chain of MASP-2 CCP2-SP (O00187 445-686): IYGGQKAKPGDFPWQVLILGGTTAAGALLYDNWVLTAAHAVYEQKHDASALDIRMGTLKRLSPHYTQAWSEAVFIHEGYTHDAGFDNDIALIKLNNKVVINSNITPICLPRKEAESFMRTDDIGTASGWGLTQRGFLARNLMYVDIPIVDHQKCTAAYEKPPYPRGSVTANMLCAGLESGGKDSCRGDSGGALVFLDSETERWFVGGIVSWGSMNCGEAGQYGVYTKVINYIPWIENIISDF
Chain of MASP-2 CCP2-SP (O00187 364-432 partner): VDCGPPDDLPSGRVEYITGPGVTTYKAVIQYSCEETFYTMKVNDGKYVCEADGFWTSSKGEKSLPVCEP

Compound: Cc1nc(N)ccc1CNC(=O)[C@H](C)NC(=O)[C@H]1C[C@@H](c2ccccc2)CCN1CCC(=O)O [compound 1411, 3-((2R,4S)-2-(((S)-1-(((6-Amino-2-methylpyridin-3-yl)methyl)amino)-1-oxopropan-2-yl)carbamoyl)-4-phenylpiperidin-1-yl)propanoic acid Trifluoroacetate salt]
- H-bond distance to MASP-2 ARG 630 atom NE (Table A1 (H-Bonds), ARG 630 NE): 2.66
- H-bond distance to MASP-2 ASP 627 atom OD2 (Table A1 (H-Bonds)): 3.17
- H-bond distance to MASP-2 GLY 656 atom N (Table A1 (H-Bonds)): 3.07
- H-bond distance to MASP-2 SER 628 atom O (Table A1 (H-Bonds)): 3.2
- H-bond distance to MASP-2 SER 654 atom O (Table A1 (H-Bonds)): 3.06
- H-bond distance to MASP-2 SER 657 atom O (Table A1 (H-Bonds)): 2.61
- van der Waals contact distance, MASP-2 amino acid atom to compound atom (Table A2): 3.8
- van der Waals contact distance, MASP-2 HIS 483 atom CD2: 3.51
- van der Waals contact distance, MASP-2 HIS 483 atom NE2: 3.46
- van der Waals contact distance, MASP-2 GLY 528 atom CA (Table A2-2): 3.85
- van der Waals contact distance, MASP-2 PHE 529 atom CE1: 3.69
- van der Waals contact distance, VAL 653 CG1 to compound atom (Table A2-11): 3.52
- van der Waals contact distance TRP 655 atom CE3 (Table A2-13, MASP-2 TRP 655 CE3, compound atom in line below): 3.6
- van der Waals contact distance TRP 655 atom CZ3 (Table A2-13, MASP-2 TRP 655 CZ3): 3.57
- Ligand-pharmacophore element distance, pharmacophore element C2: 0.42
- Ligand-pharmacophore element distance, pharmacophore element C3: 0.32
- Ligand-pharmacophore element distance, pharmacophore element C4: 0
- Ligand-pharmacophore element distance, pharmacophore element C5: 0
- Ligand-pharmacophore element distance, pharmacophore element C6: 0
- Ligand-pharmacophore element distance, pharmacophore element C7: 0
- Ligand-pharmacophore element distance, pharmacophore element CA1: 0.71
- Ligand-pharmacophore element distance, pharmacophore element CA2: 0.52
- Ligand-pharmacophore element distance, pharmacophore element CA3: 0
- Ligand-pharmacophore element distance, pharmacophore element CA4: 0
- Ligand-pharmacophore element distance, pharmacophore element CA5: 0
- Ligand-pharmacophore element distance, pharmacophore element CA6: 0
- d(C3,CA1) [1]: 2.87
- d(CA1,N1)2 [1]: 1.34
- d(CA1,O1) [1]: 4.37
- d(CA1,O2) [1]: 4.05
- d(H4,O1) [1]: 4.34
- d(H4,O2) [1]: 3.90
- d(O1,O2) [1]: 3.50
- d(N2,C2) [2]: 1.46
- d(N2,CA2) [2]: 5.72
- d(O2,H3) [2]: 4.13
- d(O2,N2) [2]: 2.68
- a(C3, CA1, O1) (Table A6-1 pharmacophore angle): 149.02
- a(CA1, O1, O2) (Table A6-1 pharmacophore angle): 109.85
- a(O1, O2, H4) (Table A6-1 pharmacophore angle): 130.04
- a(N1, CA1, O1) b) (Table A6-1 pharmacophore angle): 173.43
- a(O1, O2, H3): 142.75
- a(O1, O2, N2): 140.47
- a(O2, N2, C2): 130.32
- a(O2, N2, CA2): 155.94
- Pharmacophore torsion angle a(C3, CA1, O1, H4) [3]: 24.51
- Pharmacophore torsion angle a(H4, O1, O2, H3) [3]: 55.16
- Pharmacophore torsion angle a(H4, O1, O2, N2) [3]: 137.13
- Pharmacophore torsion angle a(N1, CA1, O1, H4) [3]: −2.21
- Pharmacophore torsion angle a(O1, H4, O2, CA1) [3]: −82.11
- Pharmacophore torsion angle a(O1, O2, N2, C2) [3]: 117.46
- Pharmacophore torsion angle a(O1, O2, N2, CA2) [4]: 127.52

Compound: Cc1nc(N)ccc1CNC(=O)C(C)NC(=O)[C@H]1C[C@H](c2cccc(-c3ccccc3)c2)CN1 (stereo in doubt) [compound 1360, (2R,4R)-4-([1,1′-Biphenyl]-3-yl)-N—((R)-1-(((6-amino-2-methylpyridin-3-yl)methyl)amino)-1-oxopropan-2-yl)pyrrolidine-2-carboxamide]
- H-bond distance to MASP-2 ASP 627 atom OD2 (Table A1 (H-Bonds)): 3.15
- H-bond distance to MASP-2 GLY 656 atom N (Table A1 (H-Bonds)): 3.21
- H-bond distance to MASP-2 GLY 656 atom O (Table A1 (H-Bonds), GLY 656 O): 2.9
- H-bond distance to MASP-2 SER 628 atom O (Table A1 (H-Bonds)): 3.18
- H-bond distance to MASP-2 SER 654 atom O (Table A1 (H-Bonds)): 3.04
- H-bond distance to MASP-2 SER 657 atom O (Table A1 (H-Bonds)): 2.96
- van der Waals contact distance, MASP-2 HIS 483 atom CD2: 3.76
- van der Waals contact distance, MASP-2 HIS 483 atom NE2: 3.69
- van der Waals contact distance, MASP-2 PHE 529 atom CE1: 3.78
- van der Waals contact distance, MASP-2 amino acid atom to compound atom (Table A2-7: SER 628 (CB, O, OG)): 3.61
- van der Waals contact distance, TRP 655 CA to compound atom (Table A2-12): 3.44
- Ligand-pharmacophore element distance, pharmacophore element C2: 0
- Ligand-pharmacophore element distance, pharmacophore element C3: 0.11
- Ligand-pharmacophore element distance, pharmacophore element C4: 0
- Ligand-pharmacophore element distance, pharmacophore element C5: 0
- Ligand-pharmacophore element distance, pharmacophore element C6: 0
- Ligand-pharmacophore element distance, pharmacophore element C7: 0
- Ligand-pharmacophore element distance, pharmacophore element CA1: 0.57
- Ligand-pharmacophore element distance, pharmacophore element CA2: 2.35
- Ligand-pharmacophore element distance, pharmacophore element CA3: 0
- Ligand-pharmacophore element distance, pharmacophore element CA4: 0
- Ligand-pharmacophore element distance, pharmacophore element CA5: 1.11
- Ligand-pharmacophore element distance, pharmacophore element CA6: 0
- d(C3,CA1) [1]: 2.85
- d(CA1,N1)2 [1]: 1.36
- d(CA1,O1) [1]: 4.35
- d(CA1,O2) [1]: 3.85
- d(H4,O1) [1]: 4.38
- d(H4,O2) [1]: 3.80
- d(O1,O2) [1]: 3.32
- d(CA5,N2) [2]: 5.07
- d(N2,CA2) [2]: 8.32
- d(O2,H3) [2]: 4.32
- d(O2,N2) [2]: 2.66
- a(C3, CA1, O1) (Table A6-1 pharmacophore angle): 150.18
- a(CA1, O1, O2) (Table A6-1 pharmacophore angle): 105.67
- a(O1, O2, H4) (Table A6-1 pharmacophore angle): 132.69
- a(N1, CA1, O1) b) (Table A6-1 pharmacophore angle): 174.23
- a(O1, O2, H3): 147.57
- a(O1, O2, N2): 138.89
- a(O2, N2, CA2): 162.09
- Pharmacophore torsion angle a(C3, CA1, O1, H4) [3]: 24.01
- Pharmacophore torsion angle a(H4, O1, O2, H3) [3]: 51.00
- Pharmacophore torsion angle a(H4, O1, O2, N2) [3]: 138.89
- Pharmacophore torsion angle a(N1, CA1, O1, H4) [3]: 3.34
- Pharmacophore torsion angle a(O1, H4, O2, CA1) [3]: −83.81
- Pharmacophore torsion angle a(O1, O2, N2, CA2) [4]: 130.24
- Pharmacophore torsion angle a(O1, O2, N2, CA5) [4]: 129.35

Compound: C[C@H](NC(=O)[C@H]1C[C@@H](c2ccccc2)CCN1)C(=O)NCc1cc(Cl)ccc1O.Cl [1078_1]
- Ligand-pharmacophore element distance, pharmacophore element C2: 0.69
- Ligand-pharmacophore element distance, pharmacophore element C3: 0
- Ligand-pharmacophore element distance, pharmacophore element C4: 0
- Ligand-pharmacophore element distance, pharmacophore element C5: 0.4
- Ligand-pharmacophore element distance, pharmacophore element C6: 0
- Ligand-pharmacophore element distance, pharmacophore element C7: 0
- Ligand-pharmacophore element distance, pharmacophore element CA1: 1.58
- Ligand-pharmacophore element distance, pharmacophore element CA2: 0.48
- Ligand-pharmacophore element distance, pharmacophore element CA3: 0
- Ligand-pharmacophore element distance, pharmacophore element CA4: 0
- Ligand-pharmacophore element distance, pharmacophore element CA5: 0
- Ligand-pharmacophore element distance, pharmacophore element CA6: 0
- d(CA1,C5) [1]: 3.12
- d(CA1,O1) [1]: 4.56
- d(CA1,O2) [1]: 4.72
- d(CA1,O4) [1]: 2.75
- d(H4,O1) [1]: 2.29
- d(H4,O2) [1]: 2.61
- d(O1,O2) [1]: 3.05
- d(O4,H2) [1]: 0.97
- d(N2,C2) [2]: 1.48
- d(N2,CA2) [2]: 5.74
- d(O2,H3) [2]: 2.93
- d(O2,N2) [2]: 2.77
- a(C5, CA1, O1) (Table A6-1 pharmacophore angle): 160.22
- a(CA1, O1, O2) (Table A6-1 pharmacophore angle): 111.94
- a(CA1, O4, H2) (Table A6-1 pharmacophore angle): 126.79
- a(O1, CA1, O4) (Table A6-1 pharmacophore angle): 68.03
- a(O1, O2, H4) (Table A6-1 pharmacophore angle): 103.21
- a(O1, O2, H3): 141.96
- a(O1, O2, N2): 145.93
- a(O2, N2, C2): 121.70
- a(O2, N2, CA2): 154.68
- Pharmacophore torsion angle a(C5, CA1, O1, H4) [3]: 25.08
- Pharmacophore torsion angle a(H4, O1, O2, H3) [3]: −119.94
- Pharmacophore torsion angle a(H4, O1, O2, N2) [3]: −112.97
- Pharmacophore torsion angle a(O1, H4, O2, CA1) [3]: −60.12
- Pharmacophore torsion angle a(O1, O2, N2, C2) [3]: 138.25
- Pharmacophore torsion angle a(O1, O2, N2, CA2) [4]: 140.46
- Pharmacophore protein distance to MET_658 (first MET_658 column) (Table A8-6, 6th residue column, nearest protein atom in cell to the left): 2.97
- Pharmacophore protein distance to MET_658 (second MET_658 column) (Table A8-6, 9th residue column, nearest protein atom in cell to the left): 3.50
- Pharmacophore protein distance to GLY_528 [5]: 3.66
- Pharmacophore protein distance to PHE_529 [5]: 3.30
- Pharmacophore protein distance to PRO_608 [5]: 3.85
- Pharmacophore protein distance to SER_611 [5]: 2.41
- Pharmacophore protein distance to TRP_655 (Table A8-6, pharmacophore elements C6, CA3, O3, H1, nearest protein atom in cell to the left): 3.68
